Experimental data as given in ChEMBL document CHEMBL1154554, “Ganomycins A and B, new antimicrobial farnesyl hydroquinones from the basidiomycete Ganoderma pfeifferi” (2000).
Converted amounts (≈) assume the structure as drawn. The source made the active and inactive calls. The rule behind the calls is not given here.

Key:
Staphylococcus aureus [1] = experiment: Antibacterial activity against Staphylococcus aureus ATCC 6538 at 100 ug/disk after 18 hrs by agar diffusion method; format: functional; conditions: for zone of inhibition at 100 µg/disc: ATCC 6538, 18 h, read-out: IZ
Staphylococcus aureus [2] = experiment: Antibacterial activity against Staphylococcus aureus ATCC 25923 at 100 ug/disk after 18 hrs by agar diffusion method; format: functional; conditions: for zone of inhibition at 100 µg/disc: ATCC 25923, 18 h, read-out: IZ
Staphylococcus aureus [3] = experiment: Antibacterial activity against Staphylococcus aureus ATCC 29213 at 100 ug/disk after 18 hrs by agar diffusion method; format: functional; conditions: for zone of inhibition at 100 µg/disc: ATCC 29213, 18 h, read-out: IZ
Staphylococcus aureus [4] = experiment: Antibacterial activity against Staphylococcus aureus SG511 at 100 ug/disk after 18 hrs by agar diffusion method; format: functional; conditions: for zone of inhibition at 100 µg/disc: read-out: IZ
Bacillus subtilis = experiment: Antibacterial activity against Bacillus subtilis SBUG 14 at 100 ug/disk after 18 hrs by agar diffusion method; format: functional; conditions: for zone of inhibition at 100 µg/disc: read-out: IZ
Micrococcus luteus [5] = experiment: Antibacterial activity against Micrococcus flavus SBUG 16 at 100 ug/disk after 48 hrs by agar diffusion method; format: functional; conditions: for zone of inhibition at 100 µg/disc: read-out: IZ
Pseudomonas aeruginosa = experiment: Antibacterial activity against Pseudomonas aeruginosa ATCC 15442 at 100 ug/disk after 18 hrs by agar diffusion method; format: functional, organism-based
Serratia marcescens = experiment: Antibacterial activity against sSerratia marcescens SBUG 9 at 100 ug/disk after 18 hrs by agar diffusion method; format: functional; conditions: for zone of inhibition at 100 µg/disc: read-out: IZ
Proteus mirabilis = experiment: Antibacterial activity against Proteus mirabilis SBUG 47 at 100 ug/disk after 18 hrs by agar diffusion method; format: functional; conditions: for zone of inhibition at 100 µg/disc: read-out: IZ
Escherichia coli = experiment: Antibacterial activity against sEscherichia coli SBUG 13 at 100 ug/disk after 18 hrs by agar diffusion method; format: functional; conditions: for zone of inhibition at 100 µg/disc: read-out: IZ
Micrococcus luteus [6] = experiment: Antibacterial activity against Micrococcus flavus SBUG 16 after 18 hrs by broth microdilution method; format: functional
Staphylococcus aureus [7] = experiment: Antibacterial activity against Staphylococcus aureus after 18 hrs by broth microdilution method; format: functional
Candida albicans = experiment: […] activity against Candida albicans at 100 ug/disk after 18 hrs by agar diffusion method; format: functional, organism-based
Candida maltosa = experiment: […] activity against Candida maltosa 100 ug/disk after 18 hrs by agar diffusion method; format: functional, organism-based

SMILES | Activity (Pseudomonas aeruginosa) | MIC (Micrococcus luteus [6]) | MIC (Staphylococcus aureus [7]) | zone of inhibition at 100 µg/disc (Staphylococcus aureus [1]) | zone of inhibition at 100 µg/disc (Staphylococcus aureus [2]) | zone of inhibition at 100 µg/disc (Staphylococcus aureus [3]) | zone of inhibition at 100 µg/disc (Staphylococcus aureus [4]) | zone of inhibition at 100 µg/disc (Bacillus subtilis) | zone of inhibition at 100 µg/disc (Micrococcus luteus [5]) | zone of inhibition at 100 µg/disc (Serratia marcescens) | zone of inhibition at 100 µg/disc (Proteus mirabilis) | Activity (Candida albicans) | Activity (Candida maltosa) | zone of inhibition at 100 µg/disc (Escherichia coli) | also measured
COC1=C(OC)C(=O)C(C/C=C(\C)CC/C=C(\C)CC/C=C(\C)CC/C=C(\C)CC/C=C(\C)CC/C=C(\C)CC/C=C(\C)CC/C=C(\C)CC/C=C(\C)CCC=C(C)C)=C(C)C1=O | inactive |  |  |  |  |  |  |  |  |  |  |  |  |  | Activity (Staphylococcus aureus [1]): inactive; Activity (Staphylococcus aureus [2]): inactive; Activity (Staphylococcus aureus [3]): inactive; Activity (Staphylococcus aureus [4]): inactive; Activity (Bacillus subtilis): inactive; Activity (Micrococcus luteus [5]): inactive; Activity (Serratia marcescens): inactive; Activity (Proteus mirabilis): inactive; Activity (Escherichia coli): inactive
CC1(C)S[C@@H]2[C@H](NC(=O)[C@H](N)c3ccccc3)C(=O)N2[C@H]1C(=O)O [AMPICILLIN] |  | 0.25 µg/mL (≈ 0.715 µM) | 0.05 µg/mL (≈ 0.143 µM) |  |  |  |  |  |  |  |  |  |  |  | 
C/C(=C\CC/C(C)=C/CC/C(=C/Cc1cc(O)ccc1O)C(=O)O)CO [GANOMYCIN A] | inactive | 2.5 µg/mL (≈ 6.94 µM) | 25 µg/mL (≈ 69.4 µM) | 19 mm | 15 mm | 16 mm | 24 mm | 16 mm | 25 mm | 15 mm | 15 mm | inactive | inactive | 4 mm | 
CC(C)=CCC/C(C)=C/CC/C(=C/Cc1cc(O)ccc1O)C(=O)O [GANOMYCIN B] | inactive | 2.5 µg/mL (≈ 7.26 µM) | 25 µg/mL (≈ 72.6 µM) | 20 mm | 17 mm | 18 mm | 24 mm | 15 mm | 26 mm | 16 mm | 15 mm | inactive | inactive | 5 mm | 
